The target of experiment [1] is T1, Xanthine oxidase (Mus musculus, UniProt Q00519).
T1 construct: The small intestine was homogenized in 4-fold volume of cooled phosphate buffered saline solution (PBS) and then centrifuged; from tissue; host or cells: small intestine of ICR strain mice; dialysed supernatant of a 105,000 g centrifugation
Nature of the experiment: Xanthine oxidase inhibition (in vitro), mouse small intestine xanthine oxidase solution, HPLC of uric acid. The experiment is classed as biochemical, mouse (ICR strain mice. As to conditions: xanthine substrate, incubated at 37° C. for 5 minutes; HPLC UV 292 nm. As for the experimental part: (1) Preparation of Xanthine Oxidase Solution
ICR strain mice were decapitated and the small intestine of each mouse was rapidly perfused with cooled physiological saline solution and removed. The small intestine was homogenized in 4-fold volume of cooled phosphate buffered saline solution (PBS) and then centrifuged at 105,000 g for 60 minutes. The supernatant fluid was dialyzed overnight against PBS. The dialyzed solution thus prepared was stored at -20° C. until used.
(2) Preparation of the Solution Containing the Present Compound
The compound of this invention was dissolved in DMSO (200 μl) and 2N NaOH (100 μl), and then PBS was added to prepare a solution (25 ml) containing 10^-3 M of the compound of this invention. This solution was diluted with PBS to prepare solutions containing the compound in the concentration of 10^-4, 10^-5, 10^-6, 10^-7, 10^-8, 10^-9, 10^-10, and 10^-11 M, respectively.
(3) Method for the Measurement
The assay mixture, consisted of the composition mentioned below, was incubated at 37° C. for 5 minutes. The reaction was stopped by heating in boiling water for one minute. Twenty microliters of the supernatant was analyzed by high performance liquid chromatography (HPLC) under the conditions mentioned below.
Xanthine oxidase solution (diluted in 4-folds with PBS): 200 μl
Solution containing the present compound: 200 μl
Column: osmosil packed column (.phi. 4. mm×150 mm, 5C18×300)
(§1) Eluting solution: 10 mM phosphate buffer (pH 6.0)
(§2) Retention time: 2.4 minutes (uric acid)
(4) Percent Inhibition of the Compound Against Xanthine Oxidase
The percent inhibition was calculated by the following equation. [formula]
As to each of the solutions containing the present compound as prepared in the above (2), the percent inhibition was calculted, and IC50 values were obtained from a plot of the percent inhibition against the log of the concentration of the compound of this invention.

The subject of experiment [2] is uric acid in serum. The experiment is described as follows: Lowering effect of test compound on the level of uric acid in serum (in vivo, oral administration). Further details: species or system mouse (normal male ICR mice). As to conditions: Mus musculus, 4 hours after administration, male ICR mice, suspended in 0.5% CMC-Na, read-out: in vivo Lowering rate (%) of uric acid in serum (in 4 hours). As for the experimental part:
Experiment 2 (In Vivo: Oral Administration)
(1) Animals, Method of Administration and Sampling of Serum
Normal male ICR mice (weighting about 30 g), were provided normal diet and tap water ad libitum. A test compound suspended in 0.5% CMC-Na was administered orally to the mice (each group: 6 mice) in a dose of 5 mg/kg.
(2) Measurement of Amount of Uric Acid in Serum
To the serum (200 μl) was added 10% perchloric acid (100 μl), and the mixture was centrifuged. To the supernatant fluid (100 μl) was added 0.2M Na2 HPO4 (200 μl), and the mixture (20 μl) was analyzed by HPLC to measure the amount of uric acid. The HPLC was carried out under the following conditions.
Column: Cosmosil packed column (.phi. 4.6 mm×150 mm, 5C18 -300)
as §1, §2
(3) Lowering Effect of Test Compound on the Level of Uric Acid in Serum
The lowering rate of uric acid in serum was calculated by the following equation. [formula]

Molecules are shown by their SMILES.

T1 sequence (Q00519 whole entry): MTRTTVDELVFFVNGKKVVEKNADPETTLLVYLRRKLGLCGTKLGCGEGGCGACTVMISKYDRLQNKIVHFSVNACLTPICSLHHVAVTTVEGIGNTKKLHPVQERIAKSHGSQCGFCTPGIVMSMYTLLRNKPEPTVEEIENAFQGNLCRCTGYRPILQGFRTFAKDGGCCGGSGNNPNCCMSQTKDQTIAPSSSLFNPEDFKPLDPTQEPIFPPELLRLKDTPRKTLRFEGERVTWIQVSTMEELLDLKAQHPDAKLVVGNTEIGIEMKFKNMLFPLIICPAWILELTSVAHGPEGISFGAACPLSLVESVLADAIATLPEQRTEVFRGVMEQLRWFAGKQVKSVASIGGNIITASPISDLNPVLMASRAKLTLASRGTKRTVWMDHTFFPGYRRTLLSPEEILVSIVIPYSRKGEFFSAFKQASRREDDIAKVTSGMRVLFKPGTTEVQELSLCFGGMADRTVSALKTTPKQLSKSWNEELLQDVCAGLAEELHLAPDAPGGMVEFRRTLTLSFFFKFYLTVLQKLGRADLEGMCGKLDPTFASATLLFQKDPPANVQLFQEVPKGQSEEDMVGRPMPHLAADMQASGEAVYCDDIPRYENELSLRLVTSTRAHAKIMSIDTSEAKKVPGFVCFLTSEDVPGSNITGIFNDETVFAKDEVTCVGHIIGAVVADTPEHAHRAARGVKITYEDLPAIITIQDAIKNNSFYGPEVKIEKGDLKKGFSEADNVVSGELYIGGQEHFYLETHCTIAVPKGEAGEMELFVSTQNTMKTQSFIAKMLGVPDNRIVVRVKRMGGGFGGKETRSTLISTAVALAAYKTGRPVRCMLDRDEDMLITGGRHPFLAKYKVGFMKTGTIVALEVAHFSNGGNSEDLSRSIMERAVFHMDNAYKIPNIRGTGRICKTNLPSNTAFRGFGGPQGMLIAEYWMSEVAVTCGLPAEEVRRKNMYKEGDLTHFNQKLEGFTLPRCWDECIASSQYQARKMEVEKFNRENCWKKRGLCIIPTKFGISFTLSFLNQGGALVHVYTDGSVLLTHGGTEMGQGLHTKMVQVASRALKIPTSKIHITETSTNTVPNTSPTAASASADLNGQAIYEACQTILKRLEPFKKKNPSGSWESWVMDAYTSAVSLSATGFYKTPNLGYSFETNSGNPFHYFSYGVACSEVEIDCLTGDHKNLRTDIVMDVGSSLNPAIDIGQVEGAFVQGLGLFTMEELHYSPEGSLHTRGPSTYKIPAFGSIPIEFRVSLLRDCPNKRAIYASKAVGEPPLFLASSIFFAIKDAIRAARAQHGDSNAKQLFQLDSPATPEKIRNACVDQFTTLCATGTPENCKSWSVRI

`CSc1ccc(-c2cnn3c(O)ncnc23)cc1Br` [Example 146, 8-(3-Bromo-4-methylthiophenyl)-4-hydroxypyrazolo[1,5-a]-1,3,5-triazine] displayed an IC50 in experiment [1] of 2.7 nM. For the same compound, the inhibition in vivo at 5 mg/kg in experiment [2] turned out to be 47%.

On to `[O-][S+](c1ccccc1)c1ccc(-c2cnn3c(O)ncnc23)cc1` (centres unmarked) [Example 170, 4-Hydroxy-8-(4-phenylsulfinylphenyl)pyrazolo[1,5-a]-1,3,5-triazine], for which the IC50 in experiment [1] was found to be 8 nM. Also, in experiment [2], the inhibition in vivo at 5 mg/kg was 57.2%.

In turn, `Cc1cc(-c2cnn3c(O)ncnc23)ccc1[S+]([O-])c1ccccc1` (centres unmarked) [Example 171, 4-Hydroxy-8-(3-methyl-4-phenylsulfinylphenyl)pyrazolo[1,5-a]-1,3,5-triazine] registered an IC50 in experiment [1] of 2.4 nM. Moreover, in experiment [2], the inhibition in vivo at 5 mg/kg amounted to 73.6%.

`COc1cc(-c2cnn3c(O)ncnc23)ccc1[S+]([O-])c1ccccc1` (centres unmarked) [Example 187, 4-Hydroxy-8-(3-methoxy-4-phenylsulfinylphenyl)pyrazolo[1,5-a]-1,3,5-triazine] showed an IC50 in experiment [1] of 25 nM. Further, the inhibition in vivo at 5 mg/kg in experiment [2] came out at 63.9%.

What is called IC50 is the concentration needed to halve the response being measured. The low end stands for greater potency, the high end for weaker potency.

Values taken from patent US4824834A, “Pyrazolotriazine compounds” (Otsuka Pharmaceutical Company, Limited, priority 1986, dated 1989).
